The test system of one data set is SK-BR-3. Briefly: Antiproliferative activity against human SKBR3 cells after 72 hrs by Cell Titer 96 Aqueous One Solution cell proliferation assay. Format: functional.
Data set [1] deals with NCI-H1975. Nature of the data set: Antiproliferative activity against human NCI-H1975 cells after 72 hrs by Cell Titer 96 Aqueous One Solution cell proliferation assay. Format: functional. Conditions: NCI-H1975, 72 h.
Data set [2] has as its target T1, Heat shock protein HSP 90-alpha (Homo sapiens, UniProt P07900). Nature of the data set: Inhibition of FITC-geldanamycin binding to N-terminal domain of recombinant full-length HSP90alpha (unknown origin) after 16 hrs by fluorescence polarization assay.
Data set [3] addresses T1, Heat shock protein HSP 90-alpha. Briefly: Binding affinity to N-terminal domain of recombinant full-length HSP90alpha (unknown origin) by surface plasmon resonance assay.
The target in data set [4] is T2, Heat shock protein HSP90 (Homo sapiens) (UniProt P07900+P08238). Briefly: Inhibition of HSP90 in human NCI-H1975 cells assessed as decrease in EGFR protein expression at 0.05 to 1 uM after 24 hrs by Western blot analysis. Type of data set: cell-based.
For data set [5], the target named is T2, Heat shock protein HSP90 (Homo sapiens). Nature of the data set: Inhibition of HSP90 in human NCI-H1975 cells assessed as decrease in Her2 protein expression at 0.05 to 1 uM after 24 hrs by Western blot analysis. Format: cell-based. (Immunoblotting shows a protein as a band on a membrane.)
For data set [6] the target is unchanged. Nature of the data set: Inhibition of HSP90 in human NCI-H1975 cells assessed as decrease in Met protein expression at 0.05 to 1 uM after 24 hrs by Western blot analysis. Format: cell-based.
For data set [7] the target is unchanged. Nature of the data set: Inhibition of HSP90 in human NCI-H1975 cells assessed as decrease in Akt protein expression at 0.05 to 1 uM after 24 hrs by Western blot analysis. Type of data set: cell-based.
Data set [8] shares this target. Briefly: Inhibition of HSP90 in human NCI-H1975 cells assessed as decrease in c-Raf protein expression at 0.05 to 1 uM after 24 hrs by Western blot analysis. Format: cell-based.
For data set [9] the target is unchanged. Briefly: Inhibition of HSP90 in human NCI-H1975 cells assessed as induction of HSP70 expression at 0.05 to 1 uM after 24 hrs by Western blot analysis. Format: cell-based.
Data set [10] has the same target. Briefly: Inhibition of HSP90 in human NCI-H1975 cells assessed as induction of HSP90 expression at 0.05 to 1 uM after 24 hrs by Western blot analysis. Format: cell-based.
For data set [11], the system named is NCI-H1975. Briefly: Induction of apoptosis in human NCI-H1975 cells assessed as increase in cleaved PARP expression at 0.05 to 1 uM after 24 hrs by Western blot analysis. Type of data set: functional, cell-based.
The test system of data set [12] is NCI-H1975. Nature of the data set: Induction of apoptosis in human NCI-H1975 cells assessed as increase in cleaved caspase-3 expression at 0.05 to 1 uM after 24 hrs by Western blot analysis. Format: functional, cell-based.
Data set [13] relates to NCI-H1975. Nature of the data set: Induction of apoptosis in human NCI-H1975 cells assessed as increase in cleaved caspase-8 expression at 0.05 to 1 uM after 24 hrs by Western blot analysis. Format: functional, cell-based.
In data set [14] the test system is NCI-H1975. Nature of the data set: Induction of apoptosis in human NCI-H1975 cells assessed as increase in Bax expression levels at 0.05 to 1 uM after 24 by Western blot analysis. Format: functional, cell-based.
Data set [15] deals with NCI-H1975. Nature of the data set: Induction of apoptosis in human NCI-H1975 cells assessed as increase in Bcl2 expression levels at 0.05 to 1 uM after 24 by Western blot analysis. Type of data set: functional, cell-based.
The target in the next data set is Cytochrome P450 2C9 (Homo sapiens, UniProt P11712). Nature of the data set: Inhibition of CYP2C9 in human pooled human liver microsomes using tolbutamide as substrate assessed as tolbutamide 4-methylhydroxylation preincubated for 5 mins followed by NADPH addition measured after 15 mins by LC-MS/MS analysis. Type of data set: ADME.
The target in a further data set is T3, Cytochrome P450 1A2 (Homo sapiens, UniProt P05177).
T3 sequence (P05177 whole entry): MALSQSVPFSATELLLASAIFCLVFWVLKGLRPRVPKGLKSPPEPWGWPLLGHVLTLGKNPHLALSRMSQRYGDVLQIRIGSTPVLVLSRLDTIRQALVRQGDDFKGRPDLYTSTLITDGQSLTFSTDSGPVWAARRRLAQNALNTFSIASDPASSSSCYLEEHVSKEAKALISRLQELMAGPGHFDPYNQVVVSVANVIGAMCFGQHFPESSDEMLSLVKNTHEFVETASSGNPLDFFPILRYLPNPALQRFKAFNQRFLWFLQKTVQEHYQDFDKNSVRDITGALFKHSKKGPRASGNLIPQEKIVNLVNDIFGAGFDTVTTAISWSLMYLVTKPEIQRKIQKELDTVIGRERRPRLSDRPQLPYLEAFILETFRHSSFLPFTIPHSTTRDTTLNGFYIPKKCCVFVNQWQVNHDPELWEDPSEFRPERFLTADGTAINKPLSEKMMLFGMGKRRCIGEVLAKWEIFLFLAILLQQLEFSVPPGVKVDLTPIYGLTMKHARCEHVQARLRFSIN
Nature of the data set: Inhibition of CYP1A2 in human pooled human liver microsomes using phenacetin as substrate assessed as […] preincubated for 5 mins followed by NADPH addition measured after 15 mins by LC-MS/MS analysis. Format: ADME. On the technique in general: Liver microsomes are a subcellular fraction often used to study metabolism.

Another data set deals with Cytochrome P450 2C19 (Homo sapiens, UniProt P33261). Nature of the data set: Inhibition of CYP2C19 in human pooled human liver microsomes using omeprazole as substrate assessed as omepraozle hydroxylation preincubated for 5 mins followed by NADPH addition measured after 15 mins by LC-MS/MS analysis. Type of data set: ADME.
The next data set concerns the target Cytochrome P450 2D6 (Homo sapiens, UniProt P10635). Nature of the data set: Inhibition of CYP2D6 in human pooled human liver microsomes using dextromethorphan as substrate assessed as dextromethorphan O-demethylation preincubated for 5 mins followed by NADPH addition measured after 15 mins by LC-MS/MS analysis. Type of data set: ADME.
The target in the next data set is CYP3A (Homo sapiens, UniProt P08684+P20815+P24462+Q9HB55). Briefly: Inhibition of CYP3A in human pooled human liver microsomes using midazolam as substrate assessed as midazolam 1'-hydroxylation preincubated for 5 mins followed by NADPH addition measured after 15 mins by LC-MS/MS analysis. Format: ADME. Conditions: probe midazolam.
For data set [16], the system named is Mus musculus. Briefly: Toxicity in NOD-scid IL2Rgamma null mouse xenografted with human NCI-H1975 cells assessed as change in body weight at 25 to 50 mg/kg, ip dosed daily for 5 days per week followed by 2 days rest for 3 weeks and measured after 21 days post dose. Format: organism-based. The settings on record: in vivo, 504 h. (In xenograft studies the graft and the host belong to different species.)

The subject of data set [17] is NCI-H1975. Briefly: Antitumor activity against human NCI-H1975 cells xenografted in NOD-scid IL2Rgamma null mouse assessed as delay in tumor growth at 25 to 50 mg/kg, ip dosed daily for 5 days per week followed by 2 days rest for 3 weeks and measured up to 21 days post dose. Type of data set: functional, organism-based.
The test system of data set [18] is Mus musculus. Nature of the data set: In vivo inhibition of HSP90 in NOD-scid IL2Rgamma null mouse tumor xenografted with human NCI-H1975 cells assessed as decrease in EGFR protein expression at 25 to 50 mg/kg, ip dosed daily for 5 days per week followed by 2 days rest for 3 weeks and measured after 21 days post dose by immunoblot analysis. Format: functional, organism-based.

Data set [19] relates to Mus musculus. Briefly: In vivo inhibition of HSP90 in NOD-scid IL2Rgamma null mouse tumor xenografted with human NCI-H1975 cells assessed as decrease in Met protein expression at 25 to 50 mg/kg, ip dosed daily for 5 days per week followed by 2 days rest for 3 weeks and measured after 21 days post dose by immunoblot analysis. Type of data set: functional, organism-based.

Data set [20] relates to Mus musculus. Briefly: In vivo inhibition of HSP90 in NOD-scid IL2Rgamma null mouse tumor xenografted with human NCI-H1975 cells assessed as decrease in Akt protein expression at 25 to 50 mg/kg, ip dosed daily for 5 days per week followed by 2 days rest for 3 weeks and measured after 21 days post dose by immunoblot analysis. Format: functional, organism-based.
Data set [21] deals with Mus musculus. Nature of the data set: In vivo inhibition of HSP90 in NOD-scid IL2Rgamma null mouse tumor xenografted with human NCI-H1975 cells assessed as decrease in EGFR protein expression at 25 to 50 mg/kg, ip dosed daily for 5 days per week followed by 2 days rest for 3 weeks and measured after 21 days post dose by haematoxylin and eosin staining-based immunohistochemical analysis. Type of data set: functional, organism-based.

Data set [22] deals with Mus musculus. Nature of the data set: In vivo inhibition of HSP90 in NOD-scid IL2Rgamma null mouse tumor xenografted with human NCI-H1975 cells assessed as decrease in Met protein expression at 25 to 50 mg/kg, ip dosed daily for 5 days per week followed by 2 days rest for 3 weeks and measured after 21 days post dose by haematoxylin and eosin staining-based immunohistochemical analysis. Type of data set: functional, organism-based.

Data set [23] concerns Mus musculus. Nature of the data set: In vivo inhibition of HSP90 in NOD-scid IL2Rgamma null mouse tumor xenografted with human NCI-H1975 cells assessed as decrease in Akt protein expression at 25 to 50 mg/kg, ip dosed daily for 5 days per week followed by 2 days rest for 3 weeks and measured after 21 days post dose by haematoxylin and eosin staining-based immunohistochemical analysis. Format: functional, organism-based.

The subject of data set [24] is NCI-H1975. Nature of the data set: Effect on beta-actin protein levels in human NCI-H1975 cells at 0.05 to 1 uM after 24 hrs by Western blot analysis. Type of data set: ADME, cell-based. Conditions: nci-h1975, 24 h.
Data set [25] concerns Mus musculus. Nature of the data set: Toxicity in NOD-scid IL2Rgamma null mouse xenografted with human NCI-H1975 cells assessed as induction of abnormal behaviours at 25 to 50 mg/kg, ip measured after 21 days. Format: organism-based. Conditions: in vivo, 504 h.

The source made the active and inactive calls. The rule behind the calls is not given here.

Cytochrome P450 2C19, sequence (P33261 whole entry): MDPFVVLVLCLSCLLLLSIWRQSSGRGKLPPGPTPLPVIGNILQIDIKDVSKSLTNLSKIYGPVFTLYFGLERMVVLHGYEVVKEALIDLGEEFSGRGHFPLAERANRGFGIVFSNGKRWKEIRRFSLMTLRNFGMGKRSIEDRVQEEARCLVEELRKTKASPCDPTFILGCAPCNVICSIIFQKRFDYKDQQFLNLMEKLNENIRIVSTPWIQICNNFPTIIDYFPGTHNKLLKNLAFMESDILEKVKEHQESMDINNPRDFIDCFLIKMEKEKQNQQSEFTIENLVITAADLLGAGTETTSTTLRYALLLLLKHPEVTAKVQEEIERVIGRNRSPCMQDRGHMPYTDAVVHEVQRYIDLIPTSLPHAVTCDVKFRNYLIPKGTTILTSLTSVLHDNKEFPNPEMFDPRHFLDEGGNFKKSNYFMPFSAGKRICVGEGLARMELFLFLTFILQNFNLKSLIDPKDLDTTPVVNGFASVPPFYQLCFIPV
Cytochrome P450 2C9, sequence (P11712 whole entry): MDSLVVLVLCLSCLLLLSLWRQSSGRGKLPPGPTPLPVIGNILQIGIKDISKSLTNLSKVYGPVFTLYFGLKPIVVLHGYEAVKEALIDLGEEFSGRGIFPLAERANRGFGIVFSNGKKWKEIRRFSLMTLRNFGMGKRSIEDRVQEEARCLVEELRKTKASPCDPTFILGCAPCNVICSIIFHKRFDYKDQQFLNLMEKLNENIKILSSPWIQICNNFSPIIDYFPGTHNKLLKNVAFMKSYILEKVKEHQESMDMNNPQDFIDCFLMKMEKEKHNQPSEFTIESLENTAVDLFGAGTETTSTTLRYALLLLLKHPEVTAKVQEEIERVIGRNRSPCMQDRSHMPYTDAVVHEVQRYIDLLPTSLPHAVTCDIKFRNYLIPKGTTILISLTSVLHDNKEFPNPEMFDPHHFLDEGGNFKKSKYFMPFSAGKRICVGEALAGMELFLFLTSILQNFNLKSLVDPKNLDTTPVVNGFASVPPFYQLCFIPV
Cytochrome P450 2D6, sequence (P10635 whole entry): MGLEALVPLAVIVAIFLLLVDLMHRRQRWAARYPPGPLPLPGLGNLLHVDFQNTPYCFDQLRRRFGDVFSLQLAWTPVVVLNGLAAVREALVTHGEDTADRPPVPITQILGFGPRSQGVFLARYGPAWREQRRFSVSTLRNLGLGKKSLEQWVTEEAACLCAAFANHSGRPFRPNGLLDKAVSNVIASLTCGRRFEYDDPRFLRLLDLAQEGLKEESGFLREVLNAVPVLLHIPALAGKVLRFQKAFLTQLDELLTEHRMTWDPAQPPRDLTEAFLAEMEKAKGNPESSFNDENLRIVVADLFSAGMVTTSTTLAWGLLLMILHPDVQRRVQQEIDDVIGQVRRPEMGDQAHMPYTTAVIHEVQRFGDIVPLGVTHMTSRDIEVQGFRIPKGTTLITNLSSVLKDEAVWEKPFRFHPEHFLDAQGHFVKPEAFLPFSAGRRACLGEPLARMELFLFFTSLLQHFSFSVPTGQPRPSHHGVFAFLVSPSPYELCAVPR

As to `CN(Cc1ccc2c(c1)OCO2)C(=O)c1cc(Cl)c(O)cc1O`, the GI50 with SK-BR-3 (SK-BR-3, 72 h) amounted to 41.8 µM; with NCI-H1975 [1], 103 µM.

With `Cc1ccc(CN(C)C(=O)c2cc(Cl)c(O)cc2O)cc1`, the GI50 with SK-BR-3 (SK-BR-3, 72 h) was 7.2 µM; with NCI-H1975 [1], 34.3 µM.

Regarding `CCNC(=O)c1ccc(CN(C)C(=O)c2cc(C(C)C)c(O)cc2O)cc1`, the GI50 in the data set on NCI-H1975 [1] was found to be 0.46 µM.

Take `Cc1cccc(CN(C)C(=O)c2cc(Cl)c(O)cc2O)c1`: the GI50 with SK-BR-3 (SK-BR-3, 72 h) worked out at 11.3 µM; with NCI-H1975 [1] it was 49.3 µM.

The compound `CCCNC(=O)c1ccc(CN(C)C(=O)c2cc(Cl)c(O)cc2O)cc1` returned a GI50 in the data set with NCI-H1975 [1] of 20.8 µM.

Turning to `CNC(=O)c1ccc(CN(C)C(=O)c2cc(C(C)C)c(O)cc2O)cc1`, the IC50 in data set [2] is 0.0114 µM. Besides, growth in the data set on NCI-H1975 [1] was halved (GI50) at 0.86 µM.

In the case of `O=C(NCc1ccccc1)c1cc(Cl)c(O)cc1O`, in the data set on SK-BR-3, the GI50 result was “inactive”. This compound showed a GI50 in the data set on NCI-H1975 [1] of 86.2 µM.

As for `CNC(=O)c1ccc(CN(C)C(=O)c2cc(Cl)c(O)cc2O)cc1`, the IC50 in data set [2] stood at 0.496 µM. This compound gave a GI50 in the data set with NCI-H1975 [1] of 34.8 µM.

In the case of `CCCNC(=O)c1ccc(CN(C)C(=O)c2cc(C(C)C)c(O)cc2O)cc1`, the IC50 in [2] stood at 0.0053 µM; on Cytochrome P450 2C9, 5.3 µM; on Cytochrome P450 1A2 it was 34.1 µM; at Cytochrome P450 2C19, 14.6 µM; at Cytochrome P450 2D6, 23 µM. For the same compound, growth in the data set with NCI-H1975 [1] was halved (GI50) at 0.42 µM. Also, in data set [3], the Kd stood at 0.00308 µM. The inhibition result in [4], in [5], in data set [6], in [7], in [8] and in data set [9] was “Active” throughout. For the same compound, the inhibition result (in data set [10]; in the data set with Mus musculus [18]; in the data set on Mus musculus [19]; in the data set on Mus musculus [20]; in the data set with Mus musculus [21]; in the data set on Mus musculus [22]) was “Active” each time. Also, in the data set with Mus musculus [23], the inhibition result was “Active”. The result in the data set on NCI-H1975 [11], in the data set on NCI-H1975 [12], in the data set with NCI-H1975 [13] and in the data set with NCI-H1975 [17] was Active. For the same compound, the result in the data set on NCI-H1975 [14] and in the data set on NCI-H1975 [15] was inactive. The IC50 at 15 min at CYP3A was determined as 25.9 µM. Besides, the Activity entry in the data set with Mus musculus [16], with NCI-H1975 [24] and in the data set with Mus musculus [25] was “Non-Toxic” each time.

Broadly, the GI50 is the concentration that inhibits growth by half. A word on the IC50: it is the concentration that inhibits the measured activity by half. As a reminder, the Kd is the equilibrium constant for the complex coming apart.

(Values after ChEMBL document CHEMBL4251579, “Design, synthesis, and biological evaluation of a series of resorcinol-based N-benzyl benzamide derivatives as potent Hsp90 inhibitors” (Eur J Med Chem, 2018).)
